The target of assay [1] is T1, mouse Siglec-2-Fc-Avi (CD22) (Mus musculus, UniProt P35329).
T1 construct: made in house
T1 sequence (P35329 22-708 limits assumed): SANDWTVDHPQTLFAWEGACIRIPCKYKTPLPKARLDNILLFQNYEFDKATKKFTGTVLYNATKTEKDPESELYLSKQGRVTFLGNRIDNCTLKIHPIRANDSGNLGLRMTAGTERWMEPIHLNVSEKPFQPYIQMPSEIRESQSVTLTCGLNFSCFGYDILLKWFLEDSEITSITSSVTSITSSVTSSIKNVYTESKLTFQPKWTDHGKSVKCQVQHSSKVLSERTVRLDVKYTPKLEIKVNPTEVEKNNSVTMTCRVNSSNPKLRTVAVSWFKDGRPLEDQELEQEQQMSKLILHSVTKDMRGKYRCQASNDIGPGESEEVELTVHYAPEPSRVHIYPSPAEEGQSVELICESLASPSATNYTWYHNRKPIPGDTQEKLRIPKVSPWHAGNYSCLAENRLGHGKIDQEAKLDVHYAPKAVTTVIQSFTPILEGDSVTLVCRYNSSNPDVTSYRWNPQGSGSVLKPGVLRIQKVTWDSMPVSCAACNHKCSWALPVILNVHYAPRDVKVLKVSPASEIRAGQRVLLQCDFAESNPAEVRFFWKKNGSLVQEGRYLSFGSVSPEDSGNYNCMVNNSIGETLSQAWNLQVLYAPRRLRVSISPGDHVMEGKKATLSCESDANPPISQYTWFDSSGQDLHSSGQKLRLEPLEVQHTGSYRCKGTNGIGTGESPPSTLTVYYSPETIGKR
As to the kind of experiment: SPR binding affinity to mouse CD22. The note with it: steady-state analysis. In a few lines:
(§1)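 Biotinylated CD22 desialylated with SialoExo (4 h, 37° C) before capture on streptavidin chip. Running buffer 10 mM HEPES, 150 mM NaCl, 0.05% Tween-20, pH 7.5, 1% DMSO, with DMSO solvent correction; 120 s dissociation. Compound affinities from steady-state analysis.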
Background: SPR reads the build-up and loss of mass on a sensor chip optically.

Assay [2] addresses cynomolgus Siglec-2/CD22 (Macaca fascicularis, UniProt A0A2K5WCZ6). As to the kind of experiment: biochemical. It counts as binding. The note with it: SPR, steady-state analysis; read-out: Affinity cyno CD22. An outline of the steps:
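SPR with desialylated (SialoExo, 4 h, 37° C.) cynomolgus CD22 amine-coupled to a CM5 chip. Running buffer 10 mM HEPES, 150 mM NaCl, 0.05% Tween-20, pH 7.5, 1% DMSO, with solvent correction; 120 s dissociation. Affinities from steady-state analysis.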

Assay [3] deals with T2, human Siglec-2/CD22 protein (Homo sapiens, UniProt P20273).
T2 construct: purchased Acro Biosystems SI2-H82E3
T2 sequence (P20273 20-847): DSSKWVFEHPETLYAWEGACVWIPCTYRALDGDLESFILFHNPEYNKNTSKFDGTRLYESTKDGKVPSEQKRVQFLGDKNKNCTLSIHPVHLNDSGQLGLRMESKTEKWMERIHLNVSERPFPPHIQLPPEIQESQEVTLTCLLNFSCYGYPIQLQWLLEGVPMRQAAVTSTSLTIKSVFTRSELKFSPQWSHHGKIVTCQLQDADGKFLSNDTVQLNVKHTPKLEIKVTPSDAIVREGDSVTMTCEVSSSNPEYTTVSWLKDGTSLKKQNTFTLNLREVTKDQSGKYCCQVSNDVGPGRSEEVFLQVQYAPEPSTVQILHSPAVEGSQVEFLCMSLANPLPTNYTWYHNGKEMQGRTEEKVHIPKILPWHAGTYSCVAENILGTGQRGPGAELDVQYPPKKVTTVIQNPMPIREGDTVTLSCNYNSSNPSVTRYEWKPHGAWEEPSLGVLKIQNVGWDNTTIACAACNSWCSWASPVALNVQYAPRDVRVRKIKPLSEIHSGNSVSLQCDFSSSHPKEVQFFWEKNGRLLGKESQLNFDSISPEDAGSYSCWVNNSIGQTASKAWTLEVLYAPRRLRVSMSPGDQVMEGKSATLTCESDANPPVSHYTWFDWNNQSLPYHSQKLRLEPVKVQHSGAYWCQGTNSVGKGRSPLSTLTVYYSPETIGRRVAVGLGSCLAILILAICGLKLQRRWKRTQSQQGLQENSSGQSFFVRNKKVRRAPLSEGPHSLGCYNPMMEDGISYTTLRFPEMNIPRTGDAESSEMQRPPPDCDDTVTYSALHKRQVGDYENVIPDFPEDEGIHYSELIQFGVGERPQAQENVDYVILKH
As to the kind of experiment: SPR binding affinity to human CD22. The note with it: steady-state analysis. An outline of the steps: as §1

Chain of cynomolgus Siglec-2/CD22 (A0A2K5WCZ6 entry or part of it): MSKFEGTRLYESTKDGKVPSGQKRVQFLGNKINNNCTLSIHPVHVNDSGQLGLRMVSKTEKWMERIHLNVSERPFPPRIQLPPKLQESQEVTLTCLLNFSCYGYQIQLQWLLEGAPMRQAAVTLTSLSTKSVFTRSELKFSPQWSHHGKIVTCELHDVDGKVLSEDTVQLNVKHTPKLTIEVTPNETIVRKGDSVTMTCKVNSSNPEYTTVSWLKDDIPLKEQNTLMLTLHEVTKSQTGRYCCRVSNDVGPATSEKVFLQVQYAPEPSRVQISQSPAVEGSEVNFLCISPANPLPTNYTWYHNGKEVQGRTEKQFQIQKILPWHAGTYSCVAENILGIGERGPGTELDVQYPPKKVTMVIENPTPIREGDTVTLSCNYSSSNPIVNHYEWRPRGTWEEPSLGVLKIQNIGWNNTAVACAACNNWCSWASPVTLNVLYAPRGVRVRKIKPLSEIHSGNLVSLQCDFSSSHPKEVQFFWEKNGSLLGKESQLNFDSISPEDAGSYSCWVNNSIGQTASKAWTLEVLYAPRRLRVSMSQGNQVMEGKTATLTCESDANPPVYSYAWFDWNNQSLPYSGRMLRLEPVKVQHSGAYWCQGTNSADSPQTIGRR

With `O=C(O)CCCCCO[C@]1(C(=O)O)C[C@H](O)[C@@H](NC(=O)CO)[C@H]([C@H](O)[C@H](O)CNC(=O)Cc2ccc(Cl)cc2)O1` [Compound 121, (2R,4S,5R,6R)-2-((5-carboxypentyl)oxy)-6-((1R,2R)-3-(2-(4-chlorophenyl)acetamido)-1,2-dihydroxypropyl)-4-hydroxy-5-(2-hydroxyacetamido)tetrahydro-2H-pyran-2-carboxylic acid], the Kd in assay [1] was 1000 to 10000 nM; in assay [2], below 1000 nM; in assay [3], below 1000 nM.

For the molecule `C#CCCOc1ccc(CS[C@]2(C(=O)O)C[C@H](O)[C@@H](NC(=O)CO)[C@H]([C@H](O)[C@H](O)CNC(=O)Cc3ccc(Cl)cc3)O2)cc1` [Compound 122, (2S,4S,5R,6R)-2-((4-(but-3-yn-1-yloxy)benzyl)thio)-6-((1R,2R)-3-(2-(4-chlorophenyl)acetamido)-1,2-dihydroxypropyl)-4-hydroxy-5-(2-hydroxyacetamido)tetrahydro-2H-pyran-2-carboxylic acid], the Kd in assay [1], in assay [2] and in assay [3] was below 1000 nM throughout.

Take `C#CCCOc1ccc(CO[C@]2(C(=O)O)C[C@H](O)[C@@H](NC(=O)CO)[C@H]([C@H](O)[C@H](O)CNC(=O)Cc3cccc(Cl)c3)O2)cc1` [Compound 123, (2R,4S,5R,6R)-2-((4-(but-3-yn-1-yloxy)benzyl)oxy)-6-((1R,2R)-3-(2-(3-chlorophenyl)acetamido)-1,2-dihydroxypropyl)-4-hydroxy-5-(2-hydroxyacetamido)tetrahydro-2H-pyran-2-carboxylic acid]: the Kd in assay [1] was 1000 to 10000 nM; in assay [2] it was below 1000 nM; in assay [3], below 1000 nM.

With `C#CCCOc1ccc(CO[C@]2(C(=O)O)C[C@H](O)[C@@H](NC(=O)CO)[C@H]([C@H](O)[C@H](O)CNC(=O)Cc3ccc(Cl)cc3)O2)cc1` [Compound 124, (2R,4S,5R,6R)-2-((4-(but-3-yn-1-yloxy)benzyl)oxy)-6-((1R,2R)-3-(2-(4-chlorophenyl)acetamido)-1,2-dihydroxypropyl)-4-hydroxy-5-(2-hydroxyacetamido)tetrahydro-2H-pyran-2-carboxylic acid], the Kd in assay [1] is below 1000 nM; in assay [2], 1000 to 10000 nM; in assay [3], below 1000 nM.

Turning to `C#CCOCCOCCO[C@]1(C(=O)O)C[C@H](O)[C@@H](NC(=O)CO)[C@H]([C@H](O)[C@H](O)CNC(=O)Cc2cccc(Cl)c2)O1` [Compound 125, (2R,4S,5R,6R)-6-((1R,2R)-3-(2-(3-chlorophenyl)acetamido)-1,2-dihydroxypropyl)-4-hydroxy-5-(2-hydroxyacetamido)-2-(2-(2-(prop-2-yn-1-yloxy)ethoxy)ethoxy)tetrahydro-2H-pyran-2-carboxylic acid], the Kd is 1000 to 10000 nM in assay [1], 1000 to 10000 nM in assay [2] and below 1000 nM in assay [3].

Consider `C#CCOCCOCCO[C@]1(C(=O)O)C[C@H](O)[C@@H](NC(=O)CO)[C@H]([C@H](O)[C@H](O)CNC(=O)Cc2ccc(Cl)cc2)O1` [Compound 126, (2R,4S,5R,6R)-6-((1R,2R)-3-(2-(4-chlorophenyl)acetamido)-1,2-dihydroxypropyl)-4-hydroxy-5-(2-hydroxyacetamido)-2-(2-(2-(prop-2-yn-1-yloxy)ethoxy)ethoxy)tetrahydro-2H-pyran-2-carboxylic acid], for which the Kd in assay [1], in assay [2] and in assay [3] was 1000 to 10000 nM throughout.

As for `C#CCOCCCCCCO[C@]1(C(=O)O)C[C@H](O)[C@@H](NC(=O)CO)[C@H]([C@H](O)[C@H](O)CNC(=O)Cc2ccc(Cl)c(C(F)(F)F)c2)O1` [Compound 127, (2R,4S,5R,6R)-6-((1R,2R)-3-(2-(4-chloro-3-(trifluoromethyl)phenyl)acetamido)-1,2-dihydroxypropyl)-4-hydroxy-5-(2-hydroxyacetamido)-2-((6-(prop-2-yn-1-yloxy)hexyl)oxy)tetrahydro-2H-pyran-2-carboxylic acid], the Kd is 1000 to 10000 nM in assay [1], below 1000 nM in assay [2] and below 1000 nM in assay [3].

As for `C#CCOCCCCCCO[C@]1(C(=O)O)C[C@H](O)[C@@H](NC(=O)CO)[C@H]([C@H](O)[C@H](O)CNC(=O)Cc2ccc(Cl)c(O)c2)O1` [Compound 128, (2R,4S,5R,6R)-6-((1R,2R)-3-(2-(4-chloro-3-hydroxyphenyl)acetamido)-1,2-dihydroxypropyl)-4-hydroxy-5-(2-hydroxyacetamido)-2-((6-(prop-2-yn-1-yloxy)hexyl)oxy)tetrahydro-2H-pyran-2-carboxylic acid], the Kd in assay [1], in assay [2] and in assay [3] was below 1000 nM each time.

Take `C#CCOCCOCCO[C@]1(C(=O)O)C[C@H](O)[C@@H](NC(=O)CO)[C@H]([C@H](O)[C@H](O)CNC(=O)Cc2cc(O)cc(Cl)c2)O1` [Compound 129, (2R,4S,5R,6R)-6-((1R,2R)-3-(2-(3-chloro-5-hydroxyphenyl)acetamido)-1,2-dihydroxypropyl)-4-hydroxy-5-(2-hydroxyacetamido)-2-(2-(2-(prop-2-yn-1-yloxy)ethoxy)ethoxy)tetrahydro-2H-pyran-2-carboxylic acid]: the Kd in assay [1] is 1000 to 10000 nM; in assay [2], below 1000 nM; in assay [3] it was below 1000 nM.

In the case of `C#CCOCCCCCCO[C@]1(C(=O)O)C[C@H](O)[C@@H](NC(=O)CO)[C@H]([C@H](O)[C@H](O)CNC(=O)Cc2ccc(Cl)c(F)c2)O1` [Compound 130, (2R,4S,5R,6R)-6-((1R,2R)-3-(2-(4-chloro-3-fluorophenyl)acetamido)-1,2-dihydroxypropyl)-4-hydroxy-5-(2-hydroxyacetamido)-2-((6-(prop-2-yn-1-yloxy)hexyl)oxy)tetrahydro-2H-pyran-2-carboxylic acid], the results for the Kd in assay [1], in assay [2] and in assay [3] were 1000 to 10000 nM, below 1000 nM and below 1000 nM, respectively.

`C#CCCOc1ccc(CS[C@]2(C(=O)O)C[C@H](O)[C@@H](NC(=O)CO)[C@H]([C@H](O)[C@H](O)CNC(=O)Cc3ccc(Cl)c(O)c3)O2)cc1` [Compound 131, (2S,4S,5R,6R)-2-((4-(but-3-yn-1-yloxy)benzyl)thio)-6-((1R,2R)-3-(2-(4-chloro-3-hydroxyphenyl)acetamido)-1,2-dihydroxypropyl)-4-hydroxy-5-(2-hydroxyacetamido)tetrahydro-2H-pyran-2-carboxylic acid]: the Kd in assay [1], in assay [2] and in assay [3] was below 1000 nM in each case.

Consider `C#CCOCCOCCO[C@]1(C(=O)O)C[C@H](O)[C@@H](NC(=O)CO)[C@H]([C@H](O)[C@H](O)CNC(=O)Cc2ccc(F)c(C(F)(F)F)c2)O1` [Compound 132, (2R,4S,5R,6R)-6-((1R,2R)-3-(2-(4-fluoro-3-(trifluoromethyl)phenyl)acetamido)-1,2-dihydroxypropyl)-4-hydroxy-5-(2-hydroxyacetamido)-2-(2-(2-(prop-2-yn-1-yloxy)ethoxy)ethoxy)tetrahydro-2H-pyran-2-carboxylic acid], for which the values for the Kd in assay [1], in assay [2] and in assay [3] were above 10000 nM, below 1000 nM and 1000 to 10000 nM, respectively.

Source of the values: patent US20250064941A1, “SIGLEC LIGANDS, CONJUGATES, AND METHODS OF USE THEREOF” (Osprey Biopharmaceuticals, Inc., priority 2023, published 2025).
